Measurements taken from patent publication US20240025922A1, “TETRAHYDROPYRIDO[3,4-d]PYRIMIDINES AS HPK1 INHIBITORS” (Merck Patent GmbH, priority 2022, published 2024).

Assays:
[1] = target: full-length human HPK1 (MAP4K1) (Homo sapiens (Human), UniProt Q92918); experiment: HPK1 Kinase Assay (Biochemical Assay), ADP-Glo; settings: GST-HPK1 3.2 nM, 10 μM ATP, MBP substrate, read-out: HPK1 enzymatic IC50
Outline: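 ADP-Glo luminescence after a 120-min kinase reaction gave percent inhibition and IC50. The enzyme was Sf21-expressed N-terminal GST full-length human HPK1 at 3.2 nM in HEPES pH 7.5 buffer with MgCl2, DTT, Brij-35 and BSA.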

[2] = target: HPK1 (SLP76 phosphorylation at Ser376 in Jurkat and EL-4 cells) (Homo sapiens, UniProt Q92918); assay type: cell-based; settings: αCD3/αCD28 Dynabeads stimulated cells, pSLP76 (Ser376) detection; read-out: HPK1 pSLP76 IC50
Sequence of HPK1 (SLP76 phosphorylation at Ser376 in Jurkat and EL-4 cells) (Q92918 whole entry, looked up): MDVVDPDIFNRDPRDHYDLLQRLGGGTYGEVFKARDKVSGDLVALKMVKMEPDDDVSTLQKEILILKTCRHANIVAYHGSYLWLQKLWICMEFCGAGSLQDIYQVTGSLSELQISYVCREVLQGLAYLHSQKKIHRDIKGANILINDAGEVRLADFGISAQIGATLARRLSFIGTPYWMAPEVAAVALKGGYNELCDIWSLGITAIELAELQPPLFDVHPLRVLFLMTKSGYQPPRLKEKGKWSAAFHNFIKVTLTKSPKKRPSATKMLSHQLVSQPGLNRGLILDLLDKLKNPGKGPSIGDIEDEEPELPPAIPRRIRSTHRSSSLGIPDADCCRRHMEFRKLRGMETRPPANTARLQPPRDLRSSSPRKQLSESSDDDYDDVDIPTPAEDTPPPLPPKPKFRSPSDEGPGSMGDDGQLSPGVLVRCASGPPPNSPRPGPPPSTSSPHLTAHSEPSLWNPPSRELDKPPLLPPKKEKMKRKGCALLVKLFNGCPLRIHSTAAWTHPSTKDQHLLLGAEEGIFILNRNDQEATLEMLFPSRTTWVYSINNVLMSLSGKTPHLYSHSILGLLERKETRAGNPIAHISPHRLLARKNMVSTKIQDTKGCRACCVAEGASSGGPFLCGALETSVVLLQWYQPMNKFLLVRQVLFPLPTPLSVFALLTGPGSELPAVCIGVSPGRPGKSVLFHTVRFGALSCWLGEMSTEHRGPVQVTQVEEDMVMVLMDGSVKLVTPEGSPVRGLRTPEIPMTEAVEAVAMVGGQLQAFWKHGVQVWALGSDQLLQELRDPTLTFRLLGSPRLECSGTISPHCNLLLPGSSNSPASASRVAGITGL
Outline: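 Phospho-SLP76 (Ser376) in lysates measured by AlphaLISA for human Jurkat and by 19 h HTRF for mouse EL-4, giving % inhibition and IC50. Compounds applied 60 min before αCD3/αCD28 bead stimulation at 37 °C, lasting 15 min (Jurkat) or 30 min (EL-4).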

Sequence of full-length human HPK1 (MAP4K1) (Q92918 whole entry): as the sequence (Q92918 whole entry, looked up) above

Q: Which results are given for `Cc1c(N2CCc3cnc(Nc4ccc(C5CCN(C)CC5)c(CO)c4)nc3C2)cnc2c1NCCO2` [Example 107, (5-((7-(8-methyl-2,3-dihydro-1H-pyrido[2,3-b][1,4]oxazin-7-yl)-5,6,7,8-tetrahydropyrido[3,4-d]pyrimidin-2-yl)amino)-2-(1-methylpiperidin-4-yl)phenyl)methanol]?
A: IC50 [1]: < 100 nM; IC50 [2]: 500 to 1000 nM

Q: What does the source list for `Cc1c(N2CCc3cnc(Nc4cnc5c(c4)CNCC5)nc3C2)cnc2c1NCCO2` [Example 108, 7-(8-methyl-2,3-dihydro-1H-pyrido[2,3-b][1,4]oxazin-7-yl)-N-(5,6,7,8-tetrahydro-1,6-naphthyridin-3-yl)-5,6,7,8-tetrahydropyrido[3,4-d]pyrimidin-2-amine]?
A: IC50 [1]: < 100 nM; IC50 [2]: 500 to 1000 nM

Q: How did the IC50 [1] turn out when `Cc1c(N2CCc3cnc(Nc4cnc5c(c4)CN(C)CC5)cc3C2)cnc2c1NCCO2` [Example 109, 6-methyl-N-(6-(8-methyl-2,3-dihydro-1H-pyrido[2,3-b][1,4]oxazin-7-yl)-5,6,7,8-tetrahydro-2,6-naphthyridin-3-yl)-5,6,7,8-tetrahydro-1,6-naphthyridin-3-amine] was run?
A: 100 to 1000 nM

Q: And the IC50 [2]?
A: > 1000 nM

Q: Which IC50 [1] does the source give for `Cc1c(N2CCc3cnc(Nc4cnc5c(c4)CC(O)CC5)nc3C2)cnc2c1NCCO2` (stereo not shown) [Example 110, 3-((7-(8-methyl-2,3-dihydro-1H-pyrido[2,3-b][1,4]oxazin-7-yl)-5,6,7,8-tetrahydropyrido[3,4-d]pyrimidin-2-yl)amino)-5,6,7,8-tetrahydroquinolin-6-ol] here?
A: < 100 nM

Q: What about the IC50 [2] of the same compound?
A: 500 to 1000 nM

Q: `Cc1c(N2CCc3cnc(Nc4ccc(N5CCC(O)CC5)cc4)nc3C2)cnc2c1NCCO2` [Example 111, 1-(4-((7-(8-methyl-2,3-dihydro-1H-pyrido[2,3-b][1,4]oxazin-7-yl)-5,6,7,8-tetrahydropyrido[3,4-d]pyrimidin-2-yl)amino)phenyl)piperidin-4-ol] was tested. Which IC50 [1] did it give?
A: < 100 nM

Q: And the IC50 [2]?
A: 500 to 1000 nM

Q: Which results are given for `Cc1c(N2CCc3cnc(Nc4ccc(C5CCN(C)CC5)c(CC#N)c4)nc3C2)cnc2c1NCCO2` [Example 112, 2-(5-((7-(8-methyl-2,3-dihydro-1H-pyrido[2,3-b][1,4]oxazin-7-yl)-5,6,7,8-tetrahydropyrido[3,4-d]pyrimidin-2-yl)amino)-2-(1-methylpiperidin-4-yl)phenyl)acetonitrile]?
A: IC50 [1]: < 100 nM; IC50 [2]: 500 to 1000 nM

Q: For `COC1CCN(c2ccc(Nc3ncc4c(n3)CN(c3cnc5c(c3C)NCCO5)CC4)cc2)CC1` [Example 113, N-(4-(4-methoxypiperidin-1-yl)phenyl)-7-(8-methyl-2,3-dihydro-1H-pyrido[2,3-b][1,4]oxazin-7-yl)-5,6,7,8-tetrahydropyrido[3,4-d]pyrimidin-2-amine], which IC50 [1] is on record?
A: < 100 nM

Q: What about the IC50 [2] of the same compound?
A: 500 to 1000 nM

Q: For `Cc1c(N2CCc3cnc(Nc4cnc5c(c4)CN(C)CC5)nc3C2)cnc2c1NCCO2` [Example 115, 7-(8-methyl-2,3-dihydro-1H-pyrido[2,3-b][1,4]oxazin-7-yl)-N-(6-methyl-5,6,7,8-tetrahydro-1,6-naphthyridin-3-yl)-5,6,7,8-tetrahydropyrido[3,4-d]pyrimidin-2-amine], which IC50 [1] is on record?
A: < 100 nM

Q: And the IC50 [2]?
A: 500 to 1000 nM

Q: Which IC50 [1] does the source give for `Cc1c(N)cncc1N1CCc2cnc(Nc3cnc4c(c3)CN(C)CC4)nc2C1` [Example 116, 7-(5-amino-4-methylpyridin-3-yl)-N-(6-methyl-5,6,7,8-tetrahydro-1,6-naphthyridin-3-yl)-5,6,7,8-tetrahydropyrido[3,4-d]pyrimidin-2-amine] here?
A: < 100 nM

Q: And the IC50 [2]?
A: > 1000 nM

Q: With `Cc1ccncc1N1CCc2cnc(Nc3cnc4c(c3)CN(C)CC4)nc2C1` [Example 118, N-(6-methyl-5,6,7,8-tetrahydro-1,6-naphthyridin-3-yl)-7-(4-methylpyridin-3-yl)-5,6,7,8-tetrahydropyrido[3,4-d]pyrimidin-2-amine] as the compound, how does the IC50 [1] read?
A: < 100 nM

Q: And the IC50 [2]?
A: > 1000 nM

Q: `Cc1cnsc1N1CCc2cnc(Nc3cnc4c(c3)CN(C)CC4)nc2C1` [Example 119, N-(6-methyl-5,6,7,8-tetrahydro-1,6-naphthyridin-3-yl)-7-(4-methylisothiazol-5-yl)-5,6,7,8-tetrahydropyrido[3,4-d]pyrimidin-2-amine] was tested. Which IC50 [1] did it give?
A: < 100 nM

Q: And the IC50 [2]?
A: > 1000 nM

Q: With `Cc1cc(Nc2ncc3c(n2)CN(c2cnc4c(c2Cl)NCCO4)CC3)ccc1NC(=O)CN1CCC1` [Example 121, 2-(azetidin-1-yl)-N-(4-((7-(8-chloro-2,3-dihydro-1H-pyrido[2,3-b][1,4]oxazin-7-yl)-5,6,7,8-tetrahydropyrido[3,4-d]pyrimidin-2-yl)amino)-2-methylphenyl)acetamide] as the compound, how does the IC50 [1] read?
A: < 100 nM

Q: And the IC50 [2]?
A: < 500 nM

Q: For `Cc1cc(Nc2cc3c(cn2)CCN(c2cnc4c(c2Cl)NCCO4)C3)ccc1NC(=O)CN1CCOCC1` [Example 122, N-(4-((6-(8-chloro-2,3-dihydro-1H-pyrido[2,3-b][1,4]oxazin-7-yl)-5,6,7,8-tetrahydro-2,6-naphthyridin-3-yl)amino)-2-methylphenyl)-2-morpholinoacetamide], which IC50 [1] is on record?
A: < 100 nM

Q: What about the IC50 [2] of the same compound?
A: 500 to 1000 nM

Q: Which results are given for `Cc1c(N2CCc3cnc(Nc4ccc(NCCN(C)C)c(F)c4)cc3C2)cnc2c1NCCO2` [Example 124, N1-(2-(dimethylamino)ethyl)-2-fluoro-N4-(6-(8-methyl-2,3-dihydro-1H-pyrido[2,3-b][1,4]oxazin-7-yl)-5,6,7,8-tetrahydro-2,6-naphthyridin-3-yl)benzene-1,4-diamine]?
A: IC50 [1]: < 100 nM; IC50 [2]: 500 to 1000 nM

Q: What does the source list for `Cc1c(N2CCc3cnc(Nc4ccc(CN5CCCC5)cc4)nc3C2)cnc2c1NCCO2` [Example 125, 7-{8-methyl-1H,2H,3H-pyrido[2,3-b][1,4]oxazin-7-yl}-N-{4-[(pyrrolidin-1-yl)methyl]phenyl}-5H,6H,7H,8H-pyrido[3,4-d]pyrimidin-2-amine]?
A: IC50 [1]: < 100 nM; IC50 [2]: > 1000 nM

Q: `Cc1c(N2CCc3cnc(Nc4ccc(Cn5cncn5)cc4)nc3C2)cnc2c1NCCO2` [Example 126, 7-{8-methyl-1H,2H,3H-pyrido[2,3-b][1,4]oxazin-7-yl}-N-{4-[(1H-1,2,4-triazol-1-yl)methyl]phenyl}-5H,6H,7H,8H-pyrido[3,4-d]pyrimidin-2-amine] was tested. Which IC50 [1] did it give?
A: < 100 nM

Q: And the IC50 [2]?
A: < 500 nM

Q: What does the source list for `Cc1c(N2CCc3cnc(Nc4ccc(Cn5ccnc5)cc4)nc3C2)cnc2c1NCCO2` [Example 127, N-{4-[(1H-imidazol-1-yl)methyl]phenyl}-7-{8-methyl-1H,2H,3H-pyrido[2,3-b][1,4]oxazin-7-yl}-5H,6H,7H,8H-pyrido[3,4-d]pyrimidin-2-amine]?
A: IC50 [1]: < 100 nM; IC50 [2]: < 500 nM

Q: For `Cc1c(N2CCc3cnc(Nc4ccc(CS(N)(=O)=O)cc4)nc3C2)cnc2c1NCCO2` [Example 128, {4-[(7-{8-methyl-1H,2H,3H-pyrido[2,3-b][1,4]oxazin-7-yl}-5H,6H,7H,8H-pyrido[3,4-d]pyrimidin-2-yl)amino]phenyl}methanesulfonamide], which IC50 [1] is on record?
A: < 100 nM

Q: And the IC50 [2]?
A: < 500 nM

Q: `CNC(=O)c1ccc(Nc2ncc3c(n2)CN(c2cnc4c(c2Cl)NCCO4)CC3)cc1C` [Example 130, 4-[(7-{8-chloro-1H,2H,3H-pyrido[2,3-b][1,4]oxazin-7-yl}-5H,6H,7H,8H-pyrido[3,4-d]pyrimidin-2-yl)amino]-N,2-dimethylbenzamide] was tested. Which IC50 [1] did it give?
A: < 100 nM

Q: What about the IC50 [2] of the same compound?
A: 500 to 1000 nM

Q: With `CS(=O)(=O)Cc1ccc(Nc2ncc3c(n2)CN(c2cnc4c(c2C2CC2)NCCO4)CC3)cc1` [Example 132, 7-{8-cyclopropyl-1H,2H,3H-pyrido[2,3-b][1,4]oxazin-7-yl}-N-[4-(methanesulfonylmethyl)phenyl]-5H,6H,7H,8H-pyrido[3,4-d]pyrimidin-2-amine] as the compound, how does the IC50 [1] read?
A: < 100 nM

Q: What about the IC50 [2] of the same compound?
A: < 500 nM
